Measured values published in patent US11142525B2 (Pfizer Inc., priority 2018, dated 2021).
Like-named read-outs stand apart in the source and are kept apart here.

How the values were obtained:
[1] = target: human full-length recombinant HPK1 (Homo sapiens (Human), UniProt Q92918); assay: HPK1 biochemical enzyme assay, microfluidic mobility shift assay (MSA); conditions: read-out: HPK1 Enzyme Assay_Ki
[2] = test system: phospho-SLP-76 (Ser376) in Jurkat cells; assay: Phospho-SLP-76 (Ser376) Homogeneous Time Resolved Fluorescence (HTRF) assay in Jurkat cells; assay type: cell-based; conditions: Homo sapiens, read-out: SLP76 Assay_IC50
In short: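 Jurkat cells pre-treated 30 min with compounds (10 μM to 0.1 nM, 11-point, 0.1% DMSO), then stimulated with 200 μg/mL F(ab)2-complexed anti-CD3 (UCHT1) for 15 min at 37 °C. Lysate phospho-SLP-76 detected by HTRF after overnight antibody incubation; IC50 from four-parameter fit.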

[3] = mobility shift assay, 75 μM ATP, Morrison equation, tight-binding competitive inhibition
[4] = 30 min pre-treatment, anti-CD3 stimulation 15 min, HTRF
[5] = Phospho-SLP-76 (Ser376) HTRF, anti-CD3 stimulation

Chain of human full-length recombinant HPK1 (Q92918 whole entry): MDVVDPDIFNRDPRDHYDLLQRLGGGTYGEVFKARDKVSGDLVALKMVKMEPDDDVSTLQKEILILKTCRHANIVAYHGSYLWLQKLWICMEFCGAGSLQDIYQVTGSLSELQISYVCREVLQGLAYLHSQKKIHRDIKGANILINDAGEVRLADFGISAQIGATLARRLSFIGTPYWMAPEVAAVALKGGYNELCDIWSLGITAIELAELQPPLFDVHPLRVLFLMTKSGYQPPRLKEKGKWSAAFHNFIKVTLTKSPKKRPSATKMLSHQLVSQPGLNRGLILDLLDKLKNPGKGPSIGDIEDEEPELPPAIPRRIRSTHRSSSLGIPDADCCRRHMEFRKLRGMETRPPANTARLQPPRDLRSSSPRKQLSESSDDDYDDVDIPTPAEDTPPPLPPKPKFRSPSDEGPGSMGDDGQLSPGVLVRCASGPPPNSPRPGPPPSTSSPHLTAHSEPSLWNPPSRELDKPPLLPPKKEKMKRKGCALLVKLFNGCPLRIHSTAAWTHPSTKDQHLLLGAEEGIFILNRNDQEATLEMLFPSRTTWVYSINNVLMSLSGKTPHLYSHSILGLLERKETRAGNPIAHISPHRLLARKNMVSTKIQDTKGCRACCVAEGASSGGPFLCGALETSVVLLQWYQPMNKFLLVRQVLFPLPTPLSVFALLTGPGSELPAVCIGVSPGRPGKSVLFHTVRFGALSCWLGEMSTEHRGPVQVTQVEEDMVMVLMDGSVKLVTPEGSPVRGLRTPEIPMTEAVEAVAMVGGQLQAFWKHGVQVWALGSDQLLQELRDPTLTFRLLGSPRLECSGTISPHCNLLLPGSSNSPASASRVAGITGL

| Ki [1, 3] | IC50 [2, 4] | Ki ([1]; HPK1 mobility shift assay) | IC50 [2, 5] | Structure (SMILES) |
| --- | --- | --- | --- | --- |
| – | – | 0.52 nM | 118 nM | CCN(CC)c1cc2c(c(CN)n1)CN(c1cccc(-c3nncn3CC)n1)C2=O [Example 75, 4-(aminomethyl)-6-(diethylamino)-2-[6-(4-ethyl-4H-1,2,4-triazol-3-yl)pyridin-2-yl]-2,3-dihydro-1H-pyrrolo[3,4-c]pyridin-1-one] |
| – | – | 0.64 nM | 583 nM | CCNc1cc2c(c(CNC)n1)CN(c1cccc(-c3nncn3CC)n1)C2=O [Example 76, 6-(ethylamino)-2-[6-(4-ethyl-4H-1,2,4-triazol-3-yl)pyridin-2-yl]-4-[(methylamino)methyl]-2,3-dihydro-1H-pyrrolo[3,4-c]pyridin-1-one] |
| – | – | 0.73 nM | 307 nM | CNCc1nc(NC(C)C)cc2c1CN(c1cccc(-c3nncn3C(C)C)n1)C2=O [Example 78, 4-[(methylamino)methyl]-6-(propan-2-ylamino)-2-{6-[4-(propan-2-yl)-4H-1,2,4-triazol-3-yl]pyridin-2-yl}-2,3-dihydro-1H-pyrrolo[3,4-c]pyridin-1-one] |
| – | – | < 0.05 nM | 48 nM | CC(C)N(C)c1cc2c(c(CN)n1)CN(c1cccc(-c3nncn3C(C)C)n1)C2=O [Example 79, 4-(aminomethyl)-6-[methyl(propan-2-yl)amino]-2-{6-[4-(propan-2-yl)-4H-1,2,4-triazol-3-yl]pyridin-2-yl}-2,3-dihydro-1H-pyrrolo[3,4-c]pyridin-1-one] |
| – | – | 0.16 nM | 184 nM | CCCn1cnnc1-c1cccc(N2Cc3c(cc(N(CC)CC)nc3CNC)C2=O)n1 [Example 80, 6-(diethylamino)-4-[(methylamino)methyl]-2-[6-(4-propyl-4H-1,2,4-triazol-3-yl)pyridin-2-yl]-2,3-dihydro-1H-pyrrolo[3,4-c]pyridin-1-one] |
| – | – | 0.58 nM | 406 nM | CNCc1nc(N(C)C(C)C)cc2c1CN(c1cccc(-c3nncn3C)n1)C2=O [Example 81, 4-[(methylamino)methyl]-6-[methyl(propan-2-yl)amino]-2-[6-(4-methyl-4H-1,2,4-triazol-3-yl)pyridin-2-yl]-2,3-dihydro-1H-pyrrolo[3,4-c]pyridin-1-one] |
| – | – | 0.12 nM | 95 nM | CCCn1cnnc1-c1cccc(N2Cc3c(cc(N(C)C(C)C)nc3CN)C2=O)n1 [Example 82, 4-(aminomethyl)-6-[methyl(propan-2-yl)amino]-2-[6-(4-propyl-4H-1,2,4-triazol-3-yl)pyridin-2-yl]-2,3-dihydro-1H-pyrrolo[3,4-c]pyridin-1-one] |
| – | – | 35.2 nM | 6640 nM | CNCc1nc(C2(C)CC2)cc2c1CN(c1ccc(F)c(-c3nncn3C(C)C)n1)C2=O [Example 83, 2-{5-fluoro-6-[4-(propan-2-yl)-4H-1,2,4-triazol-3-yl]pyridin-2-yl}-4-[(methylamino)methyl]-6-(1-methylcyclopropyl)-2,3-dihydro-1H-pyrrolo[3,4-c]pyridin-1-one] |
| – | – | 0.14 nM | 138 nM | CCN(c1cc2c(c(CNC)n1)CN(c1cccc(-c3nncn3CC)n1)C2=O)C(C)C [Example 84, 6-[ethyl(propan-2-yl)amino]-2-[6-(4-ethyl-4H-1,2,4-triazol-3-yl)pyridin-2-yl]-4-[(methylamino)methyl]-2,3-dihydro-1H-pyrrolo[3,4-c]pyridin-1-one] |
| – | – | 1.11 nM | 345 nM | CC1(c2cc3c(c(CN)n2)CN(c2cccc(N4C(=O)OC[C@@H]4CF)n2)C3=O)CC1 [Example 85, 4-(aminomethyl)-2-{6-[(4R)-4-(fluoromethyl)-2-oxo-1,3-oxazolidin-3-yl]pyridin-2-yl}-6-(1-methylcyclopropyl)-2,3-dihydro-1H-pyrrolo[3,4-c]pyridin-1-one] |
| – | – | 3.04 nM | 652 nM | NCc1nc(C2CC2)cc2c1CN(c1cccc(N3C(=O)OC[C@@H]3CF)n1)C2=O [Example 86, 4-(aminomethyl)-6-cyclopropyl-2-{6-[(4R)-4-(fluoromethyl)-2-oxo-1,3-oxazolidin-3-yl]pyridin-2-yl}-2,3-dihydro-1H-pyrrolo[3,4-c]pyridin-1-one] |
| – | – | 1.44 nM | 299 nM | CNCc1nc(C2CC2)cc2c1CN(c1cccc(N3C(=O)OC[C@@H]3CF)n1)C2=O [Example 87, 6-cyclopropyl-2-{6-[(4R)-4-(fluoromethyl)-2-oxo-1,3-oxazolidin-3-yl]pyridin-2-yl}-4-[(methylamino)methyl]-2,3-dihydro-1H-pyrrolo[3,4-c]pyridin-1-one] |
| – | – | 2.52 nM | 2680 nM | CCN(CC)c1cc2c(c(CN(C)C)n1)CN(c1cccc(-c3nncn3CC)n1)C2=O [Example 88, 6-(diethylamino)-4-[(dimethylamino)methyl]-2-[6-(4-ethyl-4H-1,2,4-triazol-3-yl)pyridin-2-yl]-2,3-dihydro-1H-pyrrolo[3,4-c]pyridin-1-one] |
| – | – | < 0.08 nM | 54 nM | CCn1cnnc1-c1cccc(N2Cc3c(cc(N(C)C(C)C)nc3CN)C2=O)n1 [Example 89, 4-(aminomethyl)-2-[6-(4-ethyl-4H-1,2,4-triazol-3-yl)pyridin-2-yl]-6-[methyl(propan-2-yl)amino]-2,3-dihydro-1H-pyrrolo[3,4-c]pyridin-1-one] |

Second part, the molecule before the results:

| Structure (SMILES) | Ki [1, 3] | IC50 [2, 4] | Ki ([1]; HPK1 mobility shift assay) | IC50 [2, 5] |
| --- | --- | --- | --- | --- |
| CCC(CC)n1cnnc1-c1cccc(N2Cc3c(cc(C4(C)CC4)nc3CNC)C2=O)n1 [Example 57, 4-[(methylamino)methyl]-6-(1-methylcyclopropyl)-2-{6-[4-(pentan-3-yl)-4H-1,2,4-triazol-3-yl]pyridin-2-yl}-2,3-dihydro-1H-pyrrolo[3,4-c]pyridin-1-one] | 0.21 nM | 74 nM | – | – |
| CC[C@H](C)n1cnnc1-c1cccc(N2Cc3c(cc(C4(C)CC4)nc3CNC)C2=O)n1 [Example 58, 2-(6-{4-[(2S)-butan-2-yl]-4H-1,2,4-triazol-3-yl}pyridin-2-yl)-4-[(methylamino)methyl]-6-(1-methylcyclopropyl)-2,3-dihydro-1H-pyrrolo[3,4-c]pyridin-1-one] | 0.16 nM | 103 nM | – | – |
| CCCn1cnnc1-c1cccc(N2Cc3c(cc(N(C)CC)nc3CNC)C2=O)n1 [Example 59, 6-[ethyl(methyl)amino]-4-[(methylamino)methyl]-2-[6-(4-propyl-4H-1,2,4-triazol-3-yl)pyridin-2-yl]-2,3-dihydro-1H-pyrrolo[3,4-c]pyridin-1-one] | 0.19 nM | 59 nM | – | – |
| CCN(C)c1cc2c(c(CN)n1)CN(c1cccc(-c3nncn3CC)n1)C2=O [Example 60, 4-(aminomethyl)-6-[ethyl(methyl)amino]-2-[6-(4-ethyl-4H-1,2,4-triazol-3-yl)pyridin-2-yl]-2,3-dihydro-1H-pyrrolo[3,4-c]pyridin-1-one] | 0.17 nM | 70 nM | – | – |
| CCn1c(C)nnc1-c1cccc(N2Cc3c(cc(N4CCC[C@H]4C)nc3CN)C2=O)n1 [Example 61, 4-(aminomethyl)-2-[6-(4-ethyl-5-methyl-4H-1,2,4-triazol-3-yl)pyridin-2-yl]-6-[(2R)-2-methylpyrrolidin-1-yl]-2,3-dihydro-1H-pyrrolo[3,4-c]pyridin-1-one] | 0.18 nM | 88 nM | – | – |
| CNCc1nc(C2(C)CC2)cc2c1CN(c1cccc(-c3nncn3C3CCC3)n1)C2=O [Example 65, 2-[6-(4-cyclobutyl-4H-1,2,4-triazol-3-yl)pyridin-2-yl]-4-[(methylamino)methyl]-6-(1-methylcyclopropyl)-2,3-dihydro-1H-pyrrolo[3,4-c]pyridin-1-one] | 0.35 nM | 114 nM | – | – |
| CCc1nnc(-c2cccc(N3Cc4c(cc(N5CCC[C@H]5C)nc4CNC)C3=O)n2)n1CC [Example 66, 2-[6-(4,5-diethyl-4H-1,2,4-triazol-3-yl)pyridin-2-yl]-4-[(methylamino)methyl]-6-[(2R)-2-methylpyrrolidin-1-yl]-2,3-dihydro-1H-pyrrolo[3,4-c]pyridin-1-one] | 0.52 nM | 108 nM | – | – |
| C[C@@H]1CCCN1c1cc2c(c(CN)n1)CN(c1cccc(N3C(=O)OC[C@@H]3CF)n1)C2=O [Example 68, 4-(aminomethyl)-2-{6-[(4R)-4-(fluoromethyl)-2-oxo-1,3-oxazolidin-3-yl]pyridin-2-yl}-6-[(2R)-2-methylpyrrolidin-1-yl]-2,3-dihydro-1H-pyrrolo[3,4-c]pyridin-1-one] | < 0.07 nM | 50 nM | – | – |
| CNCc1nc(C2CCC2)cc2c1CN(c1cccc(-c3nncn3C(C)C)n1)C2=O [Example 69, 6-cyclobutyl-4-[(methylamino)methyl]-2-{6-[4-(propan-2-yl)-4H-1,2,4-triazol-3-yl]pyridin-2-yl}-2,3-dihydro-1H-pyrrolo[3,4-c]pyridin-1-one] | – | – | 0.53 nM | 248 nM |
| CCN(c1cc2c(c(CNC)n1)CN(c1cccc(-c3nncn3C(C)C)n1)C2=O)C(C)C [Example 70, 6-[ethyl(propan-2-yl)amino]-4-[(methylamino)methyl]-2-{6-[4-(propan-2-yl)-4H-1,2,4-triazol-3-yl]pyridin-2-yl}-2,3-dihydro-1H-pyrrolo[3,4-c]pyridin-1-one] | – | – | 0.16 nM | 62 nM |
| CCn1cnnc1-c1cccc(N2Cc3c(cc(N(C)C(C)C)nc3CNC)C2=O)n1 [Example 71, 2-[6-(4-ethyl-4H-1,2,4-triazol-3-yl)pyridin-2-yl]-4-[(methylamino)methyl]-6-[methyl(propan-2-yl)amino]-2,3-dihydro-1H-pyrrolo[3,4-c]pyridin-1-one] | – | – | 0.18 nM | 40 nM |
| CNCc1nc(N(C)C(C)C)cc2c1CN(c1cccc(N3C(=O)OC[C@@H]3C)n1)C2=O [Example 74, 4-[(methylamino)methyl]-2-{6-[(4S)-4-methyl-2-oxo-1,3-oxazolidin-3-yl]pyridin-2-yl}-6-[methyl(propan-2-yl)amino]-2,3-dihydro-1H-pyrrolo[3,4-c]pyridin-1-one] | – | – | 0.06 nM | 77 nM |
